System: splenocytes
Assay: MβCD treatment of glycolipid-pulsed DCs, stimulation of autologous splenocytes in vitro
Type: cell-based, C57BL/6 mice
Conditions: DCs pulsed 18 hr, 10 mM MβCD 15 min, 24 hr culture
Protocol: Figure 7 Functional Consequences of Membrane Lipid Raft Association of Glycolipid-Loaded CD1d Molecules (A) C57BL/6 BMDCs were pulsed for 18 hr with the indicated glycolipids, washed, and incubated for 15 min in medium alone (hatched bars) or medium containing 10 mM MβCD (solid bars). Cells were then fixed (1% paraformaldehyde) and used for stimulating autologous splenocytes for 24 hr, after which supernatant concentrations of IFN-γ and IL-4 were measured. Dotted lines indicate the background levels of cytokines in cultures with BMDC pulsed with vehicle only. Means and standard deviations for triplicate cultures are shown, and results are representative of three experiments. ^∗∗p < 0.01 (ANOVA, Bonferroni post-test). (B) Effect of MβCD on in vivo presentation of αGalCer analogs. Splenic DCs were pulsed ex vivo with the indicated glycolipids for 18 hr and then incubated for 15 min in medium without (−, hatched bars) or with 10 mM MβCD (+, solid bars). After extensive washing, the cells were injected i.p. into naive C57BL/6 mice (10^6 cells/mouse). Serum was assayed for IL-4 at 2 hr and for IFN-γ at 24 hr postinjection. Data shown are means and standard deviations for pooled data from two experiments that had three mice per group. ^∗∗p < 0.01 (ANOVA, Bonferroni post-test); NS, not significant (p > 0.05).
For in vitro stimulation, murine iNKT hybridomas at 5 × 10^4 cells/well in 96-well plates were stimulated with an equal number of either JAWS II cells or transfected A20 cells in complete medium with glycolipids for 12 hr at 37°C, and levels of murine IL-2 secretion were determined. For some experiments, APCs were preincubated with glycolipids for 12 hr or fixed with paraformaldehyde (1% for 2 min at RT) prior to the addition of iNKT cell hybridomas. For in vitro stimulation of murine splenic iNKT cells, splenocytes from BALB/c or C57BL/6 mice were plated at 5 × 10^5 cells per well in complete medium in 96-well plates and stimulated with glycolipids for 48 hr at 37°C. Subsequently the levels of IL-4, IL-13, and IFN-γ in culture supernatants were quantified by capture ELISA. For assays with methyl-β-cyclodextrin (MβCD) treatment of APCs, we prepared splenic DCs with a CD11c^+ cell isolation kit from Miltenyi Biotech from mice that had been injected s.c. 14 days previously with 10^5 Flt3-ligand-secreting B16 melanoma cells to increase the yield ([Mach et al., 2000]). Purified CD11c^+ cells were cultured in complete medium for 18 hr with glycolipids (100 nM) as indicated, washed, and incubated at 37°C for 15 min in medium with or without 10 mM MβCD (Sigma-Aldrich) and subsequently fixed (1% paraformaldehyde) and cultured in 96-well plates at 2 × 10^5 cells/well with autologous splenocytes (4 × 10^5 cells per well). […]

Row | SMILES | effect of MβCD treatment of pulsed DCs on stimulation of IFN-γ production by splenocytes | effect of MβCD treatment of pulsed DCs on stimulation of IL-4
1 | CCCCCCCCCCCCCCC(O)C(O)C(COC1OC(CO)C(O)C(O)C1O)NC(=O)CCCCCCCCC (stereo not shown) [αGalCer-C10:0] | unaffected by MβCD | –
2 | CCCCCC=CCC=CCCCCCCCCCC(=O)NC(COC1OC(CO)C(O)C(O)C1O)C(O)C(O)CCCCCCCCCCCCCC (stereo not shown) [αGalCer-C20:2] | unaffected by MβCD | –
3 | CCCCCCCCCCCCCCCCCCCCCCCCCC(=O)NC(COC1OC(CO)C(O)C(O)C1O)C(O)C(O)CCCCCCCCCCCCCC (stereo not shown) [αGalCer-C26:0, reference compound] | markedly reduced | no effect
